For one data set, the system named is VCAM-1. Kind of data set: In vitro VCAM-1 assay (TNF stimulated vascular endothelial cells). Type of data set: cell-based. As to conditions: Endothelial cell. As to the method: The ability of a compound described herein to inhibit the expression of VCAM-1 in a host can be assessed using any known method, including that described in detail below.
Two to four confluent P150 plates were trypsinized and the cells transferred to a 50 mL conical centrifuge tube. The cells were pelleted, resuspended and counted using the trypan blue exclusion method.
Cells were resuspended at a concentration of 36,000 cells/mL and 1 mL was aliquoted per well.
Cells were split into 24 well tissue culture plates. The cells in each well should be approximately 90-95% confluent by the following day. Cells should not be older than passage 8.
Compounds were initially screened at 50 μM and 10 μM. A 50 mM stock solution for each compound was prepared in culture medium. The stock solution was diluted to 5 mM and 1 mM. When 10 μL of the 5 mM solution was added to the well (1 mL medium/well), the final concentration was 50 μM. Adding 10 μL of the 1 mM solution to the well provides a final concentration of 10 μM.
Compounds which will not go into solution in culture medium were resuspended in DMSO at a concentration of 25 mM. The stock solution was then diluted to the final concentration in culture medium. The old medium was aspirated and 1 mL of the new medium with the compound was added. For example, if the final concentration was 50 μM, the 2 μL of the 25 mM stock was added per mL of culture medium. […] was diluted for lower concentrations.
The compounds were added to the plate (each compound is done in duplicate). One plate was prepared for VCAM expression and one plate was prepared for ICAM expression.
Immediately after the compounds weree added, TNF was added to each well 100 units/mL TNF was usually added to each well. Since each lot of TNF varies in the number of units, each new lot was titrated to determine the optimum concentration. Therefore this concentration changed. If 100 units/mL was being used, TNF was dilted to 10 units/μL and 10 μL added to each well.
The plates were incubated at 37° C., 5% CO2 overnight (approximately 16 hours). The next day the plates were checked under the microscope to see if there were any visual signs of toxicity. Records were made of any cell death, debris, or morphology changes, as well as insoluble compounds (particulate or turbity).
The degree of inhibition of the compounds of formula (I) was determined by the assays.

For the next data set, the system named is MCP-1. Kind of data set: In vitro MCP-1 activity assay (TNF-α stimulated endothelial cells, MCP-1 immunoassay). Type of data set: cell-based. As to conditions: Endothelial cell; human endothelial cells stimulated with TNF-α (1 ng/ml), approximately 16 hours, MCP-1 immunoassay of culture media. As to the method:
Cultured human endothelial cells were seeded in 96-well plates. On the following day cells were stimulated with TNF-α (1 ng/ml) in the presence or absence of compounds dissolved in DMSO. To establish a dose curve and IC50 for each compound, multiple concentrations in 2-fold increments were used. Cells were exposed to TNF-α and compounds for approximately 16 hours. The next day the cells were visually examined via light microscopy to score for visual signs of toxicity. Cell culture media, diluted 1:10, was analyzed by an MCP-1 immunoassay kit (R & D Systems). This assay is a sandwich immunoassay using immobilized anti-MCP-1 antibody in 96-well plate to capture secreted MCP-1 in cell culture media. Captured MCP-1 is subsequently detected with a horse radish peroxidase-conjugated anti-MCP-1 antibody for color development. Results are expressed as IC50 values (the amount of compound (µM) required to achieve a 50% reduction compared to control (cells stimulated with TNF-α only)).

In data set [1] the test system is human aortic smooth muscle cells. Kind of data set: In vitro smooth muscle cell activity assay (3H-thymidine incorporation, serum stimulated). The data set is classed as cell-based. As to conditions: human aortic smooth muscle cells stimulated with 5% serum. As to the method:
Cultured human aortic smooth muscle cells were seeded in 24-well plates. When cells reached 80% confluency, they were made quiescent by changing media to 0.2% serum (as compared to 5% serum in normal culture media) for 48 hours. The cells were then stimulated by addition of 5% serum in the presence or absence of compounds dissolved in DMSO. To establish a dose curve and IC50 for each compound, multiple concentrations in 5-fold increments were used. After 20 hr incubation, 3H-thymidine (0.5 μCi/per well) was added to the cells for 4 hours of labeling. Washed cells were then lysed in NaOH and, the amount of 3H-thymidine incorporation was determined. Results are expressed as IC50 values (the amount of compound (µM) required to achieve a 50% reduction compared to control (cells stimulated with 5% serum only)).

The mark [2] stands for this setting: TNF stimulated cells, overnight (approximately 16 hours), read-out: VCAM-1 IC50.
Where [3] appears, read: degree of inhibition of VCAM-1 expression, TNF stimulated endothelial cells, approximately 16 hours, read-out: VCAM-1 (µM).

This passage reports melting point and IC50 results from patent US20060258735A1, “1,3-Bis-(substituted-phenyl)-2-propen-1-ones and their use to treat VCAM-1 mediated disorders” (priority 2000, published 2006).

pIC50: −log10 of the molar value. Structures can show the parent of a compound that is named as a salt. Where two headings read alike, the source gives them in different places.

Broadly, the melting point is the temperature of the solid-liquid transition. `COc1ccc(-c2cccs2)cc1C=CC(=O)c1ccc(Cl)c(Cl)c1O.[Na]` had a melting point above 260 °C.

In the case of `COc1cc(OCC(=O)O)c(C=CC(=O)c2cc(OC)c(OC)c(OC)c2)cc1-c1cc2ccccc2s1` (as salt: sodium) [3-[5-(benzo[b]thien-2-yl)-2-carboxymethoxy-4-methoxyphenyl]-1-(3,4,5-trimethoxyphenyl)-2-propen-1-one], the melting point was in the range of 255 to 257 °C.

Take `COc1cc(C=CC(=O)c2cc(OC)c(OC)c(OC)c2)cc(Br)c1OC` [3-(3-bromo-4,5-dimethoxyphenyl)-1-(3,4,5-trimethoxyphenyl)-2-propen-1-one]: the pIC50 with VCAM-1 (setting [2]) was 5.40.

Consider `COc1cc(OCC(=O)O)c(C=CC(=O)c2cc(OC)c(OC)c(OC)c2)cc1-c1cc2ccccc2s1` [3-[5-(benzo[b]thien-2-yl)-2-carboxymethoxy-4-methoxyphenyl]-1-(3,4,5-trimethoxyphenyl)-2-propen-1-one], for which the pIC50 with VCAM-1 (setting [2]) is 5.08.

For the molecule `COc1cc(C=CC(=O)c2ccc(OC)c(OC)c2OC)cc(-c2cccs2)c1OC` [Example 2, 3-[3,4-dimethoxy-5-(thien-2-yl)phenyl]-1-(2,3,4-trimethoxyphenyl)-2-propen-1-one], the melting point was in the range of 94 to 97 °C. In the data set on MCP-1, this molecule gave a pIC50 of 5.30. The same molecule showed a pIC50 in data set [1] of 6.40.

Turning to `COc1cc(C(=O)C=Cc2cc(OC)c(OC)c(-c3cc4ccccc4s3)c2)cc(OC)c1OC` [Example 4, 3-[5-(benzo[b]thien-2-yl)-3,4-dimethoxyphenyl]-1-(3,4,5-trimethoxyphenyl)-2-propen-1-one], the melting point lay within 150 to 151 °C.

Take `COc1cc(OC)c(-c2cccs2)cc1C=CC(=O)c1cc(OC)c(OC)c(OC)c1` [Example 5, 3-[2,4-dimethoxy-5-(thien-2-yl)phenyl]-1-(3,4,5-trimethoxyphenyl)-2-propen-1-one]: the melting point was in the range of 75 to 80 °C. In data set [1], the pIC50 was 6.35.

As to `COc1cc(OC)c(-c2cc3ccccc3s2)cc1/C=C/C(=O)c1cc(OC)c(OC)c(OC)c1` [Example 6, 3-[5-(benzo[b]thien-2-yl)-2,4-dimethoxyphenyl]-1-(3,4,5-trimethoxyphenyl)-2-propen-1-one], the pIC50 is below 4.30 with MCP-1 and 6.48 in data set [1].

On to `COc1ccc(-c2cccs2)cc1C=CC(=O)c1cc(OC)c(OC)c(OC)c1` [Example 7, 3-[2-methoxy-5-(thien-2-yl)phenyl]-1-(3,4,5-trimethoxyphenyl)-2-propen-1-one], for which the pIC50 in the data set with MCP-1 was 5.10; in data set [1], 5.82.

`COc1ccc(-c2cccs2)cc1C=CC(=O)c1ccc(OC)c(OC)c1` [Example 9, 3-[2-methoxy-5-(thien-2-yl)phenyl]-1-(3,4-dimethoxyphenyl)-2-propen-1-one]: the pIC50 in the data set with MCP-1 is 5.00; in data set [1], 5.94.

Consider `COc1ccc(C(=O)C=Cc2cc(-c3cccs3)ccc2OC)cc1` [Example 11, 3-[2-methoxy-5-(thien-2-yl)phenyl]-1-(4-methoxyphenyl)-2-propen-1-one], for which the pIC50 in the data set with MCP-1 was 5.00; in data set [1], 5.34.

The molecule `COc1ccc(-c2cccs2)cc1C=CC(=O)c1cc(OC)c(OCc2cccs2)cc1OC` [Example 17, 3-[2-methoxy-5-(thien-2-yl)phenyl]-1-(2,5-dimethoxy-4-(thien-2-ylmethoxy)phenyl)-2-propen-1-one] gave a melting point of 54 to 73 °C.

`COc1ccc(-c2cccs2)cc1C=CC(=O)c1ccc(I)cc1OC` [Example 18, 3-[2-methoxy-5-(thien-2-yl)phenyl]-1-(4-iodo-2-methoxyphenyl)-2-propen-1-one] came in with a melting point of 150 to 155 °C.

Consider `COc1cccc(-c2ccc(C(=O)C=Cc3cc(-c4cccs4)ccc3OC)c(OC)c2)c1` [Example 21, 3-[2-methoxy-5-(thien-2-yl)phenyl]-1-[2-methoxy-4-(3-methoxyphenyl)phenyl]-2-propen-1-one], for which the melting point fell in the range of 97 to 107 °C.

`COc1ccc(-c2cccs2)cc1C=CC(=O)c1ccc(F)c(F)c1` [Example 35, 3-[2-methoxy-5-(thien-2-yl)phenyl]-1-(3,4-difluorophenyl)-2-propen-1-one] yielded a melting point of 100 to 105 °C.

For the molecule `COc1ccc(-c2cccs2)cc1C=CC(=O)c1ccc(Cl)c(Cl)c1O` [Example 36, 3-[2-methoxy-5-(thien-2-yl)phenyl]-1-(3,4-dichloro-2-hydroxyphenyl)-2-propen-1-one], the melting point was 152 to 163 °C.

`COc1cc(OC)c(-c2cccs2)cc1C=CC(=O)c1ccc(OC)c(OC)c1OC` [Example 41, 3-[2,4-dimethoxy-5-(thien-2-yl)phenyl]-1-(2,3,4-trimethoxyphenyl)-2-propen-1-one] showed a pIC50 in data set [1] of 5.90.

As to `COc1cc(OC)c(-c2cc3ccccc3s2)cc1C=CC(=O)c1cc(OC)c(OCCN2CCOCC2)c(OC)c1` [Example 43, 3-[5-(benzo[b]thien-2-yl)-2,4-dimethoxyphenyl]-1-[3,5-dimethoxy-4-(2-morpholinoethoxy)phenyl]-2-propen-1-one], the melting point lay in the range of 111 to 113 °C.

The molecule `COc1cc(OC)c(-c2cc3ccccc3s2)cc1C=CC(=O)c1cc(OC)c(OCC(=O)O)c(OC)c1` [Example 44, 3-[5-(benzo[b]thien-2-yl)-2,4-dimethoxyphenyl]-1-(4-carboxymethoxy-3,5-dimethoxyphenyl)-2-propen-1-one] yielded a melting point of 145 to 153 °C.

Molecule `COc1cc(C=CC(=O)c2ccc(OC)c(OC)c2OC)cc(-c2cc3ccccc3s2)c1OC` [Example 49, 3-[5-(benzo[b]thien-2-yl)-3,4-dimethoxyphenyl]-1-(2,3,4-trimethoxyphenyl)-2-propen-1-one] had a melting point of 120 to 124 °C.

With `COc1cc(C=C2Cc3cc(-c4cccs4)ccc3C2=O)cc(OC)c1OC` [Example 53], the melting point lay within 216 to 222 °C. Also, in the data set on VCAM-1 (setting [3]), the pIC50 was below 4.30.

As for `COc1cc2c(cc1OC)C(=O)C(=Cc1cc(OC)c(OC)c(-c3cccs3)c1)CC2` [Example 54], the melting point is 192 to 205 °C. Further, in the data set with VCAM-1 (setting [3]), the pIC50 was 5.70.

Turning to `COc1ccc(-c2cccs2)cc1C=C1Cc2cc(OC)c(OC)cc2C1=O` [Example 55], the melting point is 164 to 172 °C. In addition, the pIC50 with VCAM-1 (setting [3]) was below 4.30.

For the molecule `COc1ccc(-c2cccs2)cc1/C=C/C(=O)c1ccc(-c2cccs2)cc1OC` [Example 58], the melting point was 30 to 50 °C.

Turning to `COc1cc(OC)c(-c2cc3ccccc3s2)cc1C=CC(=O)c1cc(OC)c(OCC(=O)[O-])c(OC)c1.[Na+]` [Example 61, 3-[5-(Benzo[b]thien-2-yl)-2,4-dimethoxyphenyl]-1-(4-carboxymethoxy-3,5-dimethoxyphenyl)-2-propen-1-one, sodium salt], the melting point was 191 to 196 °C (dec.). The molecule also had a pIC50 in data set [1] of 6.35.

`COc1cc(OCC(=O)O)c(/C=C/C(=O)c2cc(OC)c(OC)c(OC)c2)cc1-c1cc2ccccc2s1` [Example 62, 3-[5-(Benzo[b]thien-2-yl)-2-carboxymethoxy-4-methoxyphenyl]-1-(3,4,5-trimethoxyphenyl)-2-propen-1-one, sodium salt] gave a pIC50 in data set [1] of 5.90.
